Assay results published in patent US20050272040A1, “Method for increasing synaptic growth or plasticity” (priority 2002, published 2005).

Columns and labels:
Hippocampal neurons = experiment: Effect of inhibitors on BDNF-induced gene transcription (real time RT-PCR); assay type: cell-based, rat; settings: for Effect on BDNF-induced transcription of the immediate early genes and VGF: BDNF 20 min for immediate early genes, 3 hr for VGF; for Effect of inhibitor on BDNF-induced VGF transcription / Effect of inhibitor on BDNF-induced Arc transcription / Effect of inhibitor on BDNF-induced EGR-1 transcription / Effect of inhibitor on BDNF-induced c-fos transcription: 30 min pre-incubation, K252a 200 nM, U0126 30 μM, PD98059 50 μM, U73122 10 μM, KN93 10 μM, LY294002 30 μM, H-89 1 μM, CC 1 μM; for Effect of inhibitor on BDNF-induced VGF transcription: BDNF 3 Hours; for Effect of inhibitor on BDNF-induced Arc transcription / Effect of inhibitor on BDNF-induced EGR-1 transcription / Effect of inhibitor on BDNF-induced c-fos transcription: BDNF 20 Minutes
Protocol: Signaling cascades involved in BDNF-mediated synaptic strengthening include mitogen-activated protein (MAP) kinase, phospholipase C-γ (PLC-γ) and phosphoinositide-3 kinase (PI3K) (Gottschalk et al. (1999) supra; Minichiello et al. (2002) supra; Ying et al. (2002); Mizuno et al. (2003) supra). To determine whether these transduction pathways are also required for BDNF transcriptional regulation of immediate early genes at 20 minutes and for VGF at 3 hours, pharmacological inhibitors were employed (Table 2).
Effect of inhibitors on BDNF-induced gene transcription. The regulation of BDNF-induced genes in the presence of inhibitors was determined by real time RT-PCR. Neurons were pre-incubated with inhibitors for 30 minutes prior to BDNF treatment (20 minutes for immediate early genes and 3 hours for VGF). […] “blocked” indicates significant reduction of transcription in the presence of inhibitor plus BDNF relative to BDNF alone (p<0.05, ANOVA, n=3).
Each experiment consisted of four groups: vehicle, inhibitor alone, BDNF, BDNF plus inhibitor. Data were normalized to GAPDH and expressed as a fold change of vehicle control.
(§1) cDNA (100 μl) was prepared from 2 μg control or BDNF-treated RNA using random primers and Superscript II reverse transcriptase. 25 μl PCR reactions were then carried out using gene specific primers designed by Primer Express software and TaqMan MGB probes (Applied Biosystems 7000 Sequence Detection System, Foster City, Calif.). Duplicate wells were included for each condition and primer pair. Primers specific to the housekeeping gene, glyceraldehyde-3-phosphate dehydrogenase (GAPDH) were used as an internal control. Data analysis was performed according to the protocol provided by Applied Biosystems.
Hippocampal neurons were pre-incubated with inhibitors for 30 min prior to BDNF treatment (20 min for IEGs and 3 hr for VGF). All inhibitors were purchased from Calbiochem, San Diego, Calif. K252a (200 nM), U0126 (30 μM), PD98059 (50 μM), U73122 (10 μM), KN93 (10 μM), LY294002 (30 μM), H-89 (1 μM) and chelerythrine chloride (CC, 1 μM). Pharmacological inhibitors were tested for efficacy by assaying downregulation of endogenous kinase phosphorylation in cell culture using Western blot (Y. Z. Du and C. F. Dreyfus, personal communication). Each experiment consisted of 4 groups: vehicle, inhibitor alone, BDNF, and BDNF plus inhibitor. Following inhibitor and BDNF treatments, RNA was isolated and subjected to real time RT-PCR as described above.

hippocampal cells = experiment: Real-time RT-PCR of genes induced by neurotrophin treatment of hippocampal cultures; assay type: cell-based, rat; design: key to NGF effect on Fra2 transcription / NGF effect on CyclinD1 transcription / NGF effect on c-fos transcription / NGF effect on Kv + 1.1 transcription / NGF effect on Na + ch transcription / NGF effect on SgII transcription / NGF effect on SSTR4 transcription / NGF effect on UNC5H2 transcription / NGF effect on NPY transcription / NGF effect on VGF transcription / NGF effect on EGR1 transcription / NGF effect on PTP1B transcription / NGF effect on Arc transcription: UC = unchanged; DOWN: down = decreased
Protocol: The molecular genetics underlying BDNF-evoked plasticity were examined by expression profiling using cDNA microarrays on a population of hippocampal cells in vitro. Synaptic effects of BDNF are observed within 20 minutes of exposure (Levine et al. (1996) supra; Lessmann and Heumann (1998) supra; Schinder et al. (2000) supra). A 3-hour BDNF treatment has been used to identify several genes with roles in synaptic plasticity (Thakker-Varia et al. (2001) supra). Consequently, to reveal immediate, as well as downstream transcriptional changes, both acute (20 minutes) and longer treatment (3 hours) with BDNF were used herein. […] Two independent Atlas arrays were performed using RNA from hippocampal cells treated for either 20 minutes or 3 hours of BDNF (50 ng/mL) and control sister cultures.
Of those genes selected, the regulation of 7% at 20 minutes and 40% at 3 hours were validated, although the magnitude of regulation was not always identical to that observed on the microarray. To focus on genes specifically involved in plasticity, a related neurotrophin, nerve growth factor (NGF), not inducing synaptic plasticity (Levine et al. (1996) supra), served as a control.
Time-mated pregnant rats were sacrificed by CO2 asphyxiation in accordance with institutional guidelines for care and use of animals. Fetuses were removed by caesarean section and transferred to a sterile petri dish with phosphate-buffered saline. Fetal hippocampi were dissected from surrounding brain tissue and meninges were completely removed. Low-density cultures of dissociated embryonic day 18 rat hippocampi (Sprague Dawley from Hilltop Laboratories, Scottsdale, Pa.) were prepared using standard methods (Thakker-Varia et al. (2001) supra). Briefly, pooled tissue from each litter was mechanically dissociated in nutrient medium containing 7.5% fetal bovine serum and plated on poly-D-lysine-coated culture dishes at 350,000 cells/dish. Cultures were maintained in serum-free medium (Thakker-Varia et al., 2001) for 10-14 days and contained pure neurons.
Total cellular RNA was prepared from neuronal cultures treated with either BDNF (50 ng/ml) or vehicle (water) for either 20 min or 3 hr by the guanidine isothiocyanate method and CsCl gradients (Thakker-Varia et al., 2001). DNAse-treated total RNA was prepared from neurotrophin or control hippocampal cultures and reverse transcribed using gene specific primers. Radioactively labeled probes were then hybridized to Atlas Arrays Rat 1.2 (Clontech, Palo Alto, Calif.) according to manufacturer's protocol. Arrays were performed in duplicate with an independent source of RNA. The hybridization pattern was analyzed on a phosphorimager and normalized to the global hybridization signal. Analysis was performed by Clontech using 1.7-fold change as criteria for significance. All transcriptional changes were confirmed by real time RT-PCR on independent samples (see below).
as §1

[1] = NGF as control neurotrophin, 20 minute section of Table 1
[2] = NGF as control neurotrophin, 3 hour section of Table 1

Compound | Effect on BDNF-induced transcription of the immediate early genes and VGF (Hippocampal neurons) | Effect of inhibitor on BDNF-induced VGF transcription (Hippocampal neurons) | Effect of inhibitor on BDNF-induced Arc transcription (Hippocampal neurons) | Effect of inhibitor on BDNF-induced EGR-1 transcription (Hippocampal neurons) | Effect of inhibitor on BDNF-induced c-fos transcription (Hippocampal neurons) | further results
O=S(=O)(NCCNC/C=C/c1ccc(Br)cc1)c1cccc2cnccc12 [H-89] | did not affect gene expression |  |  |  |  | 
COC(=O)[C@@]1(O)C[C@H]2O[C@]1(C)n1c3ccccc3c3c4c(c5c6ccccc6n2c5c31)C(=O)NC4 [K252a] | blocked | Blocked | Blocked | Blocked | Blocked | 
COc1ccc(S(=O)(=O)N(CCO)c2ccccc2CN(C)C/C=C/c2ccc(Cl)cc2)cc1 [KN93] | blocked | Blocked | Blocked | Blocked | Blocked | 
COc1cccc(-c2cc(=O)c3ccccc3o2)c1N [PD98059] | blocked | Blocked | Blocked | Blocked | Blocked | 
N#CC(=C(/N)Sc1ccccc1N)/C(C#N)=C(\N)Sc1ccccc1N [U0126] | blocked | Blocked | Blocked | Blocked | Blocked | 
COc1ccc2c(c1)CC[C@@H]1[C@@H]2CC[C@]2(C)[C@@H](NCCCCCCN3C(=O)C=CC3=O)CC[C@@H]12 [U73122] | blocked | Blocked | Blocked |  | Blocked | 
NGF: related neurotrophin, nerve growth factor, not inducing synaptic plasticity, served as a control |  |  |  |  |  | Effect of NGF on transcription of BDNF-induced genes (hippocampal cells): did not affect transcription of most genes; NGF effect on Arc transcription (hippocampal cells; [1]): UC; NGF effect on EGR1 transcription (hippocampal cells; [1]): UC; NGF effect on c-fos transcription (hippocampal cells; [1]): UC; NGF effect on Arc transcription (hippocampal cells; [2]): UC; NGF effect on CyclinD1 transcription (hippocampal cells; [2]): UC; NGF effect on EGR1 transcription (hippocampal cells; [2]): UC; NGF effect on Fra2 transcription (hippocampal cells; [2]): DOWN; NGF effect on Kv + 1.1 transcription (hippocampal cells; [2]): UC; NGF effect on NPY transcription (hippocampal cells; [2]): DOWN; NGF effect on Na + ch transcription (hippocampal cells; [2]): UC; NGF effect on PTP1B transcription (hippocampal cells; [2]): UC; NGF effect on SSTR4 transcription (hippocampal cells; [2]): DOWN; NGF effect on SgII transcription (hippocampal cells; [2]): UC; NGF effect on UNC5H2 transcription (hippocampal cells; [2]): UC; NGF effect on VGF transcription (hippocampal cells; [2]): UC; NGF effect on c-fos transcription (hippocampal cells; [2]): UC
